Tests used:
Type in all cases: functional
Pseudomonas aeruginosa = test: Antibacterial activity against Pseudomonas aeruginosa ATCC 27853
Escherichia coli [1] = test: Antibacterial activity against Escherichia coli BL21(DE3) expressing Pseudomonas aeruginosa APH(3')-2b
Escherichia coli [2] = test: Antibacterial activity against Escherichia coli BL21(DE3)

GENTAMICIN
MIC (Pseudomonas aeruginosa): 2 µg/mL
MIC (Escherichia coli [1]): 6 µg/mL
MIC (Escherichia coli [2]): 6 µg/mL

— ChEMBL document CHEMBL1142160, “Overexpression and initial characterization of the chromosomal aminoglycoside 3'-O-phosphotransferase APH(3')-IIb from Pseudomonas aeruginosa” (2007)
